Assay results as given in the supplement of paper PMC4977894.
± gives the standard deviation of the averaged measurements.

Assays:
[1] = tested on: Homo sapiens (human subject panel, olfactory perception); assay: perceived odor intensity rating (rating 0-100); higher = stronger perceived smell
Procedure: (§1)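 Human olfactory psychophysics. 55 healthy subjects (after excluding 6 low performers) sniffed 1 mL of each odorant diluted in paraffin oil (vials, two dilutions per molecule, 20 molecules presented twice). Each subject rated intensity, pleasantness and familiarity on a 0-100 slider, starting at 50 and required to move. Ratings were given only when the subject reported detecting a smell; per-subject ratings are averaged over subjects.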

[2] = tested on: Homo sapiens (human subject panel, olfactory perception); assay: perceived odor pleasantness rating (rating 0-100); higher = more pleasant
Procedure: as §1

[3] = tested on: Homo sapiens (human subject panel, olfactory perception); assay: perceived odor familiarity rating (rating 0-100); higher = more familiar
Procedure: as §1

[4] = odor dilution in paraffin oil: 1/1,000
[5] = odor dilution in paraffin oil: 1/100,000
[6] = odor dilution in paraffin oil: 1/10
[7] = odor dilution in paraffin oil: 1/10,000,000

SMILES	perceived odor intensity rating [1, 4]	perceived odor intensity rating [1, 5]	perceived odor pleasantness rating [2, 4]	perceived odor pleasantness rating [2, 5]	perceived odor familiarity rating [3, 4]	perceived odor familiarity rating [3, 5]	perceived odor intensity rating [1, 6]	perceived odor pleasantness rating [2, 6]	perceived odor familiarity rating [3, 6]	perceived odor intensity rating [1, 7]	perceived odor pleasantness rating [2, 7]	perceived odor familiarity rating [3, 7]
CC[C@H](C)O [(S)-( + )-2-butanol]	16.4 ± 22	24.7 ± 27	50.2 ± 22	50.7 ± 21	33.1 ± 30	40.9 ± 30	–	–	–	–	–	–
CCOC(C)OCC [Acetal]	48.7 ± 34	43.1 ± 33	42.5 ± 24	47.9 ± 22	44.7 ± 28	35.2 ± 28	–	–	–	–	–	–
COc1ccc(C(C)=O)cc1 [Acetanisole]	44.1 ± 28	–	68.8 ± 19	–	50 ± 26	–	82.2 ± 16	53.3 ± 28	56.5 ± 30	–	–	–
COc1cc(C(C)=O)ccc1O [Acetovanillone]	35 ± 32	–	55.1 ± 21	–	41 ± 30	–	64 ± 28	45.7 ± 25	47.6 ± 29	–	–	–
O=C(O)CCCCC(=O)O [Adipic acid]	14 ± 16	–	38.5 ± 18	–	34 ± 29	–	35.7 ± 28	52.7 ± 24	43.5 ± 27	–	–	–
C=CCOC(=O)C(CC)CC [Allyl 2-ethylbutyrate]	68.5 ± 28	33.9 ± 28	51.5 ± 28	67 ± 19	51.6 ± 29	44.1 ± 30	–	–	–	–	–	–
C=CCOC(=O)c1ccco1 [Allyl 2-furoate]	60.6 ± 29	27 ± 28	31.9 ± 23	41.8 ± 21	40.9 ± 29	39.9 ± 27	–	–	–	–	–	–
C=CCSCC=C [Allyl Sulfide]	–	43.2 ± 35	–	37.2 ± 25	–	40.8 ± 30	–	–	–	27.3 ± 24	42.7 ± 23	35.4 ± 25
C=CCOC(=O)c1ccccc1N [Allyl anthranilate]	55.1 ± 31	16.4 ± 19	52 ± 27	50.7 ± 25	45.9 ± 29	33.4 ± 26	–	–	–	–	–	–
C=CCOC(=O)CCC [Allyl butyrate]	78.6 ± 20	54.3 ± 31	23.7 ± 24	33.2 ± 24	45.2 ± 31	49.2 ± 28	–	–	–	–	–	–
C=CCOC(=O)/C=C/c1ccccc1 [Allyl cinnamate]	57 ± 32	46.8 ± 30	52.4 ± 28	52.4 ± 24	40.5 ± 28	44 ± 27	–	–	–	–	–	–
C=CCOC(=O)CCC1CCCCC1 [Allyl cyclohexanepropionate]	57.9 ± 25	30.6 ± 30	60.9 ± 23	54.7 ± 24	58.7 ± 29	32.5 ± 27	–	–	–	–	–	–
C=CCOC(=O)CCCCCC [Allyl heptanoate]	53.9 ± 31	22.2 ± 26	73.7 ± 20	55.4 ± 23	57.9 ± 31	37.8 ± 29	–	–	–	–	–	–
C=CCOC(=O)Cc1ccccc1 [Allyl phenylacetate]	–	33.8 ± 29	–	33 ± 27	–	44 ± 25	–	–	–	25.7 ± 25	49.8 ± 28	29.4 ± 16
C=CCOC(=O)/C(C)=C/C [Allyl tiglate]	71.9 ± 24	48 ± 29	41.1 ± 28	44.3 ± 23	49.6 ± 31	46.1 ± 32	–	–	–	–	–	–
CC1(C)CCC[C@]2(C)[C@H]3CCO[C@]3(C)CC[C@@H]12 [Ambrox]	50.1 ± 30	–	62.8 ± 23	–	60.9 ± 28	–	73.6 ± 23	55.7 ± 27	61 ± 27	–	–	–
CCCCCOC(=O)CCC [Amyl butyrate]	59.2 ± 26	20.8 ± 25	55.8 ± 28	47.7 ± 30	51.7 ± 32	32.9 ± 32	–	–	–	–	–	–
CCCCCOC(=O)CCCCC [Amyl hexanoate]	28.8 ± 29	–	53.8 ± 27	–	38.1 ± 30	–	67.3 ± 25	44.6 ± 28	39.1 ± 30	–	–	–
C[C@@]12C=CC[C@H]1[C@@H]1CCC3=CC(=O)CC[C@]3(C)[C@H]1CC2 [Androstadienone]	63.1 ± 32	38.2 ± 35	29.2 ± 24	38.6 ± 27	45.8 ± 34	31.6 ± 30	–	–	–	–	–	–
COc1ccc(COC(C)=O)cc1 [Anisyl acetate]	59.4 ± 26	31.7 ± 26	69.8 ± 21	48.7 ± 25	52.8 ± 29	39.3 ± 30	–	–	–	–	–	–
N[C@@H](CC(=O)O)C(=O)O [Aspartic Acid]	29.7 ± 30	–	35 ± 23	–	40 ± 30	–	63.6 ± 27	32.1 ± 28	46.6 ± 32	–	–	–
COC(OC)c1ccccc1 [Benzaldehyde dimethyl acetal]	68.6 ± 24	29.2 ± 25	35 ± 24	49.9 ± 24	41.5 ± 31	38.7 ± 29	–	–	–	–	–	–
CC1COC(c2ccccc2)O1 (configuration not stated) [Benzaldehyde propylene glycol acetal]	50.5 ± 29	28.8 ± 32	45.5 ± 23	47.2 ± 22	36.3 ± 27	34.2 ± 22	–	–	–	–	–	–
c1ccccc1 [Benzene]	11.2 ± 14	19.8 ± 26	51.7 ± 20	39.4 ± 22	26.1 ± 24	27.4 ± 25	–	–	–	–	–	–
Sc1ccccc1 [Benzenethiol]	–	63.4 ± 34	–	24.6 ± 23	–	45.1 ± 30	–	–	–	13 ± 22	41.9 ± 24	31.3 ± 28
O=C(O)c1ccccc1 [Benzoic acid]	30.3 ± 27	20.2 ± 24	34.9 ± 22	55.5 ± 25	34.4 ± 25	38.7 ± 30	–	–	–	–	–	–
O=C(OCc1ccccc1)c1ccccc1 [Benzyl benzoate]	19.8 ± 24	–	48.6 ± 21	–	42.4 ± 31	–	53.3 ± 30	46.9 ± 24	38.5 ± 26	–	–	–
